Patent US20230167088A1, “1-PYRAZINYLPYRAZOLYL-3-OXYALKYL ACIDS AND THEIR DERIVATIVES, AND THEIR USE FOR CONTROL OF UNDESIRED PLANT GROWTH” (BAYER AKTIENGESELLSCHAFT, priority 2020, published 2023)

Assays:
AMARE [1] = assay: Herbicidal pre-emergence action 2b (doubly sown, 1280 g/ha); assay type: in vivo, Amaranthus retroflexus; details: doubly sown pots, dosage 1280 g/ha, visual scoring after about 3 weeks
Procedure, shortened: (§1)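 Pots of sandy loam doubly sown with one monocot and one dicot weed species, covered, then soil surface sprayed pre-emergence with WP or EC formulations plus 0.5% additive at 600 l/ha water. Greenhouse-grown about 3 weeks; activity scored visually as % versus untreated controls (100% = dead).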

STEME [2] = assay: Herbicidal post-emergence action 1a (greenhouse pots, visual rating); assay type: in vivo, Stellaria media; details: Dosage 320 g/ha; rated visually about 3 weeks after treatment; 100% = plants have died, 0% = like control plants
Method: (§2) [table] a) Seeds of monocotyledonous and dicotyledonous weeds and crop plants are placed in sandy loam in plastic or organic plant pots, covered with soil and cultivated in a greenhouse under controlled growth conditions. 2 to 3 weeks after sowing, the test plants are treated at the one-leaf stage. The compounds of the invention, formulated in the form of wettable powders (WP) or as emulsion concentrates (EC), are then sprayed onto the green parts of the plants as aqueous suspension or emulsion with addition of 0.5% additive at a water application rate of 600 1/ha (converted). After the test plants have been kept in the greenhouse under optimum growth conditions for about 3 weeks, the activity of the preparations is rated visually in comparison to untreated controls. For example, 100% activity=the plants have died, 0% activity=like control plants. Tables A1 to A15 below show the effects of selected compounds of the general formula (I) according to Tables 1 and 2 on various harmful plants and an application rate corresponding to 320 g/ha and/or 80 g/ha, which were obtained by the experimental procedure mentioned above.

ECHCG [3] = assay: as above; assay type: in vivo, Echinochloa crus-galli; details: rated visually about 3 weeks after treatment, 100% = plants have died, 0% = like control plants
Procedure, shortened: (§3)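 Weeds and crops sown in sandy loam in greenhouse pots were sprayed post-emergence at the one-leaf stage (2–3 weeks after sowing) with WP or EC formulations plus 0.5% additive at 600 l/ha water, 320 and/or 80 g/ha. About 3 weeks later damage was rated visually against untreated controls (0% = no effect, 100% = dead).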

MATIN [4] = assay: as above; assay type: in vivo, Matricaria inodora; details: dosage 320 g/ha, visual rating about 3 weeks after treatment
Method: as §2

MATIN [5] = assay: Herbicidal pre-emergence action 2a (greenhouse pots, visual scoring); assay type: in vivo, Matricaria inodora; details: dosage 320 g/ha, visual scoring after about 3 weeks vs untreated controls
Procedure, shortened: (§4)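 Percent effect (0% like control, 100% plants died) was scored by eye roughly 3 weeks post-application. Formulated compound went onto the soil covering freshly sown seeds in water at 600 l/ha with 0.5% additive; dose 320 g/ha and/or 80 g/ha.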

PHBPU [6] = assay: Herbicidal post-emergence action 1a (greenhouse pots, visual rating); assay type: in vivo, Pharbitis purpurea; details: visual rating about 3 weeks after treatment
Procedure, shortened: as §3

POAAN [7] = assay: Herbicidal post-emergence action 1b (twin sowing, 1280 g/ha); assay type: in vivo, Poa annua; details: dosage 1280 g/ha, visual rating about 3 weeks after treatment
Procedure, shortened: (§5)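 Twin-sown weeds in sandy loam, greenhouse-grown 2–3 weeks, sprayed post-emergence at one-leaf stage with WP/EC formulations plus 0.5% additive at 600 L/ha water. Damage rated visually about 3 weeks later versus untreated controls (100% = plants dead, 0% = like control).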

AMARE [8] = assay: Herbicidal pre-emergence action 2a (greenhouse pots, visual scoring); assay type: in vivo, Amaranthus retroflexus; details: dosage 320 g/ha, visual scoring after about 3 weeks vs untreated controls
Procedure, shortened: as §4

AMARE [9] = assay: Herbicidal post-emergence action 1a (greenhouse pots, visual rating); assay type: in vivo, Amaranthus retroflexus; details: dosage 320 g/ha, visual rating about 3 weeks after treatment
Procedure, shortened: as §3

MATIN [10] = assay: Herbicidal post-emergence action 1b (twin sowing, 1280 g/ha); assay type: in vivo, Matricaria inodora; details: dosage 1280 g/ha, visual rating about 3 weeks after treatment
Procedure, shortened: as §5

VERPE [11] = assay: Herbicidal post-emergence action 1a (greenhouse pots, visual rating); assay type: in vivo, Veronica persica; details: dosage 320 g/ha, visual rating about 3 weeks after treatment
Procedure, shortened: as §3

DIGSA [12] = assay: Herbicidal pre-emergence action 2a (greenhouse pots, visual scoring); assay type: in vivo, Digitaria sanguinalis; details: dosage 320 g/ha, visual scoring after about 3 weeks
Procedure, shortened: as §4

VERPE [13] = assay: as above; assay type: in vivo, Veronica persica; details: dosage 320 g/ha, visual scoring after about 3 weeks vs untreated controls
Procedure, shortened: as §4

VIOTR [14] = assay: Herbicidal post-emergence action 1a (greenhouse pots, visual rating); assay type: in vivo, Viola tricolor; details: dosage 320 g/ha, visual rating about 3 weeks after treatment
Procedure, shortened: as §3

MATIN [15] = assay: Herbicidal pre-emergence action 2b (doubly sown, 1280 g/ha); assay type: in vivo, Matricaria inodora; details: doubly sown pots, dosage 1280 g/ha, visual scoring after about 3 weeks
Procedure, shortened: as §1

ECHCG [16] = assay: as above; assay type: in vivo, Echinochloa crus-galli; details: doubly sown pots, dosage 1280 g/ha, visual scoring after about 3 weeks
Procedure, shortened: as §1

STEME [17] = assay: as above; assay type: in vivo, Stellaria media; details: doubly sown pots, dosage 1280 g/ha, visual scoring after about 3 weeks
Procedure, shortened: as §1

ALOMY [18] = assay: Herbicidal post-emergence action 1a (greenhouse pots, visual rating); assay type: in vivo, Alopecurus myosuroides; details: rated visually about 3 weeks after treatment, 100% = plants have died, 0% = like control plants
Procedure, shortened: as §3

ECHCG [19] = assay: Herbicidal post-emergence action 1b (twin sowing, 1280 g/ha); assay type: in vivo, Echinochloa crus-galli; details: dosage 1280 g/ha, visual rating about 3 weeks after treatment
Procedure, shortened: as §5

STEME [20] = assay: as above; assay type: in vivo, Stellaria media; details: dosage 1280 g/ha, visual rating about 3 weeks after treatment
Procedure, shortened: as §5

POAAN [21] = assay: Herbicidal pre-emergence action 2b (doubly sown, 1280 g/ha); assay type: in vivo, Poa annua; details: doubly sown pots, dosage 1280 g/ha, visual scoring after about 3 weeks
Procedure, shortened: as §1

ALOMY [22] = assay: Herbicidal pre-emergence action 2a (greenhouse pots, visual scoring); assay type: in vivo, Alopecurus myosuroides; details: dosage 320 g/ha, visual scoring after about 3 weeks
Procedure, shortened: as §4

ECHCG [23] = assay: as above; assay type: in vivo, Echinochloa crus-galli; details: dosage 320 g/ha, visual scoring after about 3 weeks
Text: (§6) [table] a) Seeds of monocotyledonous and dicotyledonous weed plants and crop plants are placed in plastic or organic plant pots and covered with soil. The compounds of the invention, formulated in the form of wettable powders (WP) or as emulsion concentrates (EC), are then applied onto the surface of the covering soil as aqueous suspension or emulsion with addition of 0.5% additive at a water application rate of 600 1/ha (converted). After the treatment, the pots are placed in a greenhouse and kept under good growth conditions for the trial plants. After about 3 weeks, the effect of the preparations is scored visually in comparison with untreated controls as percentages. For example, 100% activity=the plants have died, 0% activity=like control plants. Tables B1 to B15 below show the effects of selected compounds of the general formula (I) according to Tables 1 and 2 on various harmful plants and an application rate corresponding to 320 g/ha and/or 80 g/ha, which were obtained by the experimental procedure mentioned above.

ABUTH = assay: Herbicidal post-emergence action 1b (twin sowing, 1280 g/ha); assay type: in vivo, Abutilon theophrasti; details: dosage 1280 g/ha, visual rating about 3 weeks after treatment
Method: [table] b) Seeds of mono- and dicotyledonous weed plants are placed in plastic pots in sandy loam soil (twin sowing with one species each of mono- or dicotyledonous weed plants per pot), covered with soil and cultivated in a greenhouse under controlled growth conditions. 2 to 3 weeks after sowing, the test plants are treated at the one-leaf stage. The compounds of the invention, formulated in the form of wettable powders (WP) or as emulsion concentrates (EC), are applied to the green parts of the plants as aqueous suspension or emulsion with addition of 0.5% additive at a water application rate equivalent to 600 litres per hectare. After the test plants have been kept in the greenhouse under optimum growth conditions for about 3 weeks, the activity of the preparations is rated visually in comparison to untreated controls. For example, 100% activity=the plants have died, 0% activity=like control plants. Tables A16 to A21 below show the effects of selected compounds of the general formula (I) according to Tables 1 and 2 on various harmful plants and at an application rate corresponding to 1280 g/ha, which were obtained by the experimental procedure mentioned above.

POLCO = assay: Herbicidal pre-emergence action 2a (greenhouse pots, visual scoring); assay type: in vivo, Polygonum convolvulus; details: dosage 320 g/ha, visual scoring after about 3 weeks vs untreated controls
Procedure, shortened: as §4

DIGSA [24] = assay: Herbicidal pre-emergence action 2b (doubly sown, 1280 g/ha); assay type: in vivo, Digitaria sanguinalis; details: doubly sown pots, dosage 1280 g/ha, visual scoring after about 3 weeks
Procedure, shortened: as §1

DIGSA [25] = assay: Herbicidal post-emergence action 1b (twin sowing, 1280 g/ha); assay type: in vivo, Digitaria sanguinalis; details: dosage 1280 g/ha, visual rating about 3 weeks after treatment
Procedure, shortened: as §5

PHBPU [26] = assay: Herbicidal pre-emergence action 2a (greenhouse pots, visual scoring); assay type: in vivo, Pharbitis purpurea; details: dosage 320 g/ha, visual scoring after about 3 weeks vs untreated controls
Text: as §6

VIOTR [27] = assay: as above; assay type: in vivo, Viola tricolor; details: dosage 320 g/ha, visual scoring after about 3 weeks vs untreated controls
Procedure, shortened: as §4

SETVI = assay: as above; assay type: in vivo, Setaria viridis; details: dosage 320 g/ha, visual scoring after about 3 weeks vs untreated controls
Procedure, shortened: as §4

AVEFA = assay: as above; assay type: in vivo, Avena fatua; details: dosage 320 g/ha, visual scoring after about 3 weeks
Procedure, shortened: as §4

LOLRI = assay: as above; assay type: in vivo, Lolium rigidum; details: dosage 320 g/ha, visual scoring after about 3 weeks vs untreated controls
Procedure, shortened: as §4

Row | SMILES | Pre-emergence action at 1280 g/ha against AMARE in % (AMARE [1]) | Pre-emergence action against MATIN in % (MATIN [5]) | Post-emergence action at 1280 g/ha against POAAN in % (POAAN [7]) | Pre-emergence action against AMARE in % (AMARE [8]) | Post-emergence action at 1280 g/ha against MATIN in % (MATIN [10]) | Pre-emergence action against VERPE in % (VERPE [13]) | Pre-emergence action at 1280 g/ha against MATIN in % (MATIN [15]) | Pre-emergence action at 1280 g/ha against ECHCG in % (ECHCG [16]) | Pre-emergence action at 1280 g/ha against STEME in % (STEME [17]) | Post-emergence action at 1280 g/ha against ECHCG in % (ECHCG [19]) | Post-emergence action at 1280 g/ha against STEME in % (STEME [20]) | Pre-emergence action at 1280 g/ha against POAAN in % (POAAN [21]) | Pre-emergence action against ALOMY in % (ALOMY [22]) | Pre-emergence action against ECHCG in % (ECHCG [23]) | Post-emergence action at 1280 g/ha against ABUTH in % (ABUTH) | Pre-emergence action at 1280 g/ha against DIGSA in % (DIGSA [24]) | Post-emergence action at 1280 g/ha against DIGSA in % (DIGSA [25]) | Pre-emergence action against PHBPU in % (PHBPU [26]) | Post-emergence action against ALOMY in % (ALOMY [18]; Dosage 80 g/ha) | Pre-emergence action against VIOTR in % (VIOTR [27]) | other results
1 | CCOC(=O)COc1nn(-c2cnccn2)c(-c2cccc(F)c2)c1Br [Example I-02] | 100% | 90% | 90% | 100% | 90% | 100% | 100% | 100% | 100% | 90% | 90% | 100% |  |  |  |  |  |  |  |  | Post-emergence action against STEME in % (STEME [2]): 80%; Post-emergence action against ECHCG in % (ECHCG [3]; Dosage 320 g/ha): 80%; Post-emergence action against MATIN in % (MATIN [4]): 80%; Post-emergence action against PHBPU in % (PHBPU [6]; dosage 320 g/ha): 90%; Post-emergence action against AMARE in % (AMARE [9]): 80%; Post-emergence action against VERPE in % (VERPE [11]): 80%; Pre-emergence action against DIGSA in % (DIGSA [12]): 90%; Post-emergence action against VIOTR in % (VIOTR [14]): 80%; Post-emergence action against ALOMY in % (ALOMY [18]; Dosage 320 g/ha): 80%
2 | COCCOCCOC(=O)COc1nn(-c2cnccn2)c(-c2ccc(F)nc2)c1Br [Example I-67] | 100% | 80% | 100% | 100% | 100% | 90% | 100% | 100% | 100% | 90% | 90% | 100% | 100% | 90% | 90% | 100% | 100% | 80% | 90% | 90% | Pre-emergence action against POLCO in % (POLCO): 90%; Pre-emergence action against SETVI in % (SETVI): 90%; Pre-emergence action against AVEFA in % (AVEFA): 80%
3 | COCCOC(=O)COc1nn(-c2cnccn2)c(-c2ccc(F)nc2)c1Br [Example I-68] | 100% | 90% | 100% | 100% | 90% | 90% | 100% | 100% | 100% | 100% | 100% | 100% | 100% | 90% | 100% | 100% | 100% | 80% | 80% | 90% | Post-emergence action against ECHCG in % (ECHCG [3]; Dosage 80 g/ha): 80%; Post-emergence action against PHBPU in % (PHBPU [6]; dosage 80 g/ha): 80%; Pre-emergence action against LOLRI in % (LOLRI): 80%; Pre-emergence action against SETVI in % (SETVI): 100%; Pre-emergence action against AVEFA in % (AVEFA): 90%
